Measurements taken from patent US20120114636A1, “LOW MOLECULAR WEIGHT CYCLIN E (LMW-E) AS A BIOMARKER FOR PERSONALIZATION OF CANCER THERAPIES” (The Board of Regents of the University of Texas System, priority 2009, published 2012).

Tests used:
Format in all cases: cell-based, human
MCF-7/Ac1 cells [1] = assay: Cell growth by cell counting, AD-stimulated cells; conditions: Homo sapiens, MCF7, 72 h, with 25 nM AD, 3 days, read-out: inhibition of AD-induced growth
Protocol: Cell growth. The effects of the aromatase inhibitors on MCF7/Ac1 cells growth were examined by counting the cells at the indicated time. The cells were detached from their flask using trypsin and counted using a Coulter counter machine.
To examine the effects of the three different aromatase inhibitors on the proliferation of MCF-7/Ac1 cells, cells were cultured in estrogen deprived, charcoal stripped serum media (CSSM). The response of the cells to 25 nM of androstenedione (AD) alone or AD plus one of the 3 aromatase inhibitors letrozole (FIG. 22A), anastrozole (FIG. 22B), and exemestane (FIG. 22C) was measured after 3 days of treatment. Cells maintained in CSSM were used as controls.
FIGS. 22A-22C show the effect of aromatase inhibitor treatment on proliferative response and cell cycle distribution of MCF-7/Ac1 cells. Cells were cultured in IMEM with 10% charcoal-stripped serum medium (CSSM) without phenol red and with 600 μg/ml of G418 for 4 days before plating. Cells (100,000) were seeded in 100 mm dishes and, 24 hrs later, were exposed for 3 days to the specific treatment. […] CSSM, untreated cells cultured in charcoal-stripped serum medium without phenol red and with 600 μg/ml of G418.

MCF-7/Ac1 cells [2] = assay: Cell cycle analysis by flow cytometry (PI); conditions: letrozole with 25 nM AD, concentration not given
Protocol: Cell cycle analysis. MCF-7/Ac1 cells were cultured in estrogen-deprived media with or without 25 nM 4-androstenedione, and treated with different concentrations of aromatase inhibitors. Untreated and drug treated cells were collected 72 hours later for flow cytometry and lysates were prepared for western blot and kinase assays.
Flow cytometry analysis. Cells were pelleted and resuspended in 1.5 ml of PBS, then fixed in 3.5 ml of 95% ethanol overnight at −20° C. After being washed, the pellets were resuspended in a solution of PBS containing 10 μg/ml propidium iodide, 20 μg/ml RNase A, 0.5% Tween 20, and 0.5% BSA and incubated at 37° C. for 30 min. The profiles of cells in the G0-G1, S, and G2-M phases of the cell cycle were analyzed at the M. D. Anderson Cancer Center Cytometry Core Facility on a FACS Caliber machine equipped with Cellquest or ModFit software.
FIGS. 22A-22C show the effect of aromatase inhibitor treatment on proliferative response and cell cycle distribution of MCF-7/Ac1 cells. Cells were cultured in IMEM with 10% charcoal-stripped serum medium (CSSM) without phenol red and with 600 μg/ml of G418 for 4 days before plating. Cells (100,000) were seeded in 100 mm dishes and, 24 hrs later, were exposed for 3 days to the specific treatment. […] Cell growth is expressed as the percentage of the cells compared with the control cells (25 nM AD treated cells, 575,000 cells at day 3). Columns, mean of two to three experiments, each in triplicates; bars, S.D. *, P<0.05, when compared to cells only treated with 25 nM AD; n.s, not significant. CSSM, untreated cells cultured in charcoal-stripped serum medium without phenol red and with 600 μg/ml of G418.

[3] = system: cyclin E-associated kinase activity in MCF-7/Ac1 cells; assay: Cyclin E-associated kinase assay (histone H1); conditions: with 25 nM AD, 3 days
Protocol: (§1) Immunoprecipitation and Immunoblotting. Two hundred fifty μg of cell extracts were used per immunoprecipitation with polyclonal antibody to cyclin E or polyclonal antibody to CDK2, coupled to protein A beads. After being washed, the immunoprecipitates were subjected to electrophoresis in 13% gels, transferred to Immobolin P, blocked, and incubated with the indicated antibodies as already described.
(§2) MCF-7/Ac1 cells were treated with the indicated concentrations of letrozole and AD for 3 days. Cyclin E kinase assays were performed by immunoprecipitating equal amounts of cell lysate (250 μg) with monoclonal antibodies to cyclin E coupled to protein A beads, using histone H1 as substrate. […] The same cell lysates were subjected to western blot analysis (50 μg of protein) with the indicated antibodies. […] The same cell lysates were first immunoprecipitated with cyclin E followed by western blot for p21 and p27. […] The same cell lysates were first immunoprecipitated with CDK2 followed by western blot for p21 and p27. The levels of proteins were measured by densitometric scanning of the corresponding bands and normalized using actin values. The values indicated at the bottom were compared to the values obtained with untreated cells.

[4] = system: cyclin E and CDK2 complexes in MCF-7/Ac1 cells; assay: Immunoprecipitation of cyclin E or CDK2 followed by western blot for p21 and p27
Protocol: as §1, §2

[5] = system: CDK2 protein in MCF-7/Ac1 cells; assay: Western blot of CDK2 protein levels in adenovirus-infected cells; conditions: letrozole
Protocol: Western blot analysis. Cell lysates were prepared and subjected to western blot analysis as described previously (Akli et al., 2004). Briefly, 50 μg of protein were subjected to electrophoresis on SDS-PAGE and transferred to Immobilon P overnight at 4° C. at […] constant voltage. The blots were blocked overnight at 4° C. in BLOTTO [5% nonfat dried milk in 20 mM Tris, 137 mM NaCl, and 0.05% Tween (pH 7.6)]. After being washed, the blots were incubated in primary antibodies for 3 h. Primary antibodies used were cyclin E (HE-12; Santa Cruz Biotechnology), p21 (0P64; Oncogene Research Products, Boston, Mass.), p27 (K25020; BD Biosciences-Transduction Laboratories, Lexington, Ky.), cyclin-dependent kinase 2 (CDK2; Transduction Laboratories), and actin (Chemicon International, Inc., Temecula, Calif.). Blots were then incubated with goat anti-mouse or anti-rabbit immunoglobulin-horseradish peroxidase conjugate at a dilution of 1:5000 in BLOTTO for 1 h and finally washed and developed by using the Renaissance chemiluminescence system as directed by the manufacturer (Perkin-Elmer Life Sciences, Inc., Boston, Mass.). Western blots were quantitated by densitometric analysis using IPLab Gel software (Scientific Image Processing, Vienna, Va.). Densitometric values of actin were used to standardize for equal protein loading. These values were introduced into the software Graph-Pad Prism version 4.0 (GraphPad Software, Inc., San Diego, Calif.) for statistical analysis.
MCF-7/Ac1 cells were cultured in IMEM with 10% charcoal-stripped serum medium (CSSM) without phenol red and with 600 μg/ml of G418 for 4 days before plating. […] Cells were then infected with the indicated adenoviruses (at 4000 m.o.i.) 24 hours before drug treatment.

Q: Which results are given for `N#Cc1ccc(C(c2ccc(C#N)cc2)n2cncn2)cc1` [letrozole]?
A: inhibition at 0.1 µM (MCF-7/Ac1 cells [1]; 0.1 μM): 37.2%; inhibition at 1 µM (MCF-7/Ac1 cells [1]; 1 μM): 63.5%; cells in G0/G1 (MCF-7/Ac1 cells [2]): 61.2+/−1.5%; cells in S phase (MCF-7/Ac1 cells [2]): 13.1+/−2.3%; concentration that blocked the AD-induced increase in cyclin E-associated kinase activity [3]: ≤ 0.125 µM; p21 binding to both cyclin E and CDK2 ([4]; letrozole with 25 nM AD): slightly decreased; increase in p27 binding to both cyclin E and CDK2 over levels in AD treated cells ([4]; letrozole, dose-dependent, with 25 nM AD): up to 2 fold; CDK2 protein levels ([5]; LMW cyclin E (T1, T2) overexpressing cells): did not drop following letrozole treatment; total CDK2 protein levels, percent of the level in untreated, uninfected cells ([5]; cyclin EL overexpressing cells): 50%; total CDK2 protein levels, percent of the level in uninfected cells ([5]; uninfected and LacZ infected cells): 10%
